Series [1] deals with Hepatotoxicity.
The test system of series [2] is Hepatotoxicity. The source holds these as a separate data set.
In series [3] the test system is Hepatotoxicity. The source holds these as a separate data set.
Series [4] deals with Hepatotoxicity. The source holds these as a separate data set.
In series [5] the test system is Hepatotoxicity. This is another data set of the same source.
Series [6] concerns Hepatotoxicity. This is another data set of the same source.
Series [7] deals with Hepatotoxicity. This is another data set of the same source.
Series [8] has as its system Hepatotoxicity. This is another data set of the same source.
Series [9] has as its system Hepatotoxicity. The source holds these as a separate data set.
Series [10] concerns Hepatotoxicity. The source holds these as a separate data set.
Series [11] relates to Hepatotoxicity. This is another data set of the same source.
In series [12] the test system is Hepatotoxicity. The source holds these as a separate data set.
The test system of series [13] is Hepatotoxicity. This is another data set of the same source.
For series [14], the system named is Hepatotoxicity. This is another data set of the same source.

SMILES strings stand for the structures.
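Throughout, for HepSE Combined Scores: combined hepatic side effect score as listed in the training data of the Drug Induced Liver Injury Prediction System (DILIps).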
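Throughout, for HepSE bilirubinemia: bilirubinemia hepatic side effect score drawn from the DILIps training data, a prediction system for drug-induced liver injury; call rule not given here.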
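Throughout, for HepSE cholecystitis: Cholecystitis-related hepatic side effect score drawn from the DILIps (drug-induced liver injury prediction) training data set; call rule not given here.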
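Throughout, for HepSE cholelithiasis: hepatic side effect score for cholelithiasis, drawn from the DILIps training data for predicting drug-induced liver injury; call rule not given here.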
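Throughout, for HepSE cirrhosis: cirrhosis hepatic side effect score taken from the DILIps (drug-induced liver injury prediction) training set; call rule not given here.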
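Throughout, for HepSE elevated liver function tests: hepatic side effect score for raised liver function tests, as recorded in the DILIps training set used for predicting drug-induced liver injury.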
Throughout, for HepSE hepatic failure: call rule not given here.
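Throughout, for HepSE hepatic necrosis: score of hepatic side effects for hepatic necrosis, drawn from the training data of DILIps, a prediction system for drug-induced liver injury; call rule not given here.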
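Throughout, for HepSE hepatitis: Hepatitis-related hepatic side effect score taken from the training data of DILIps, a prediction system for drug-induced liver injury; call rule not given here.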
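Throughout, for HepSE hepatomegaly: hepatic side effect score for hepatomegaly, taken from the training set of the DILIps drug-induced liver injury prediction system; call rule not given here.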
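Throughout, for HepSE jaundice: Jaundice-related hepatic side-effect score drawn from the training data of the DILIps (drug-induced liver injury prediction system); call rule not given here.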
Throughout, for HepSE liver disease: call rule not given here.
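Throughout, for HepSE liver fatty: hepatic side effect score for fatty liver, taken from the DILIps training set for predicting drug-induced liver injury; call rule not given here.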
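Throughout, for HepSE liver function tests abnormal: hepatic side effect score taken from the DILIps (drug-induced liver injury prediction system) training data, here covering abnormal liver function test findings.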

Take `COc1ccc(Cl)cc1C(=O)NCCc1ccc(S(=O)(=O)NC(=O)NC2CCCCC2)cc1` [GLYBURIDE]: the HepSE_liver disease in the series on Hepatotoxicity [1] turned out to be 0. The molecule further returned a HepSE_bilirubinemia in the series on Hepatotoxicity [2] of 0. The HepSE_hepatomegaly in the series on Hepatotoxicity [3] is recorded as 0. Besides, the HepSE_hepatic failure in the series with Hepatotoxicity [4] came to 1. Besides, the HepSE_hepatitis in the series with Hepatotoxicity [5] turned out to be 1. Also, the HepSE_cholecystitis with Hepatotoxicity [6] was 0. Besides, in the series on Hepatotoxicity [7], the HepSE_liver fatty came to 0. Besides, in the series with Hepatotoxicity [8], the HepSE_hepatic necrosis is 0. In the series on Hepatotoxicity [9], the HepSE_cirrhosis amounted to 0. Moreover, the “HepSE_elevated liver function tests” value with Hepatotoxicity [10] is recorded as 0. In the series with Hepatotoxicity [11], this molecule registered a HepSE_jaundice of 1. The “HepSE_liver function tests abnormal” value in the series on Hepatotoxicity [12] is recorded as 0. For the same molecule, the HepSE_cholelithiasis in the series on Hepatotoxicity [13] worked out at 0. For the same molecule, the “HepSE_Combined Scores” value in the series with Hepatotoxicity [14] worked out at 3.

Consider `CCCCC[C@H](O)/C=C/[C@H]1[C@H](O)CC(=O)[C@@H]1C/C=C\CCCC(=O)O` [DINOPROSTONE], for which, in the series on Hepatotoxicity [1], the HepSE_liver disease is given as 0. Further, the HepSE_bilirubinemia with Hepatotoxicity [2] stood at 0. The same molecule registered a HepSE_hepatomegaly in the series on Hepatotoxicity [3] of 0. In addition, in the series on Hepatotoxicity [4], the HepSE_hepatic failure came out at 0. This molecule displayed a HepSE_hepatitis in the series with Hepatotoxicity [5] of 0. This molecule also had a HepSE_cholecystitis in the series on Hepatotoxicity [6] of 0. The molecule further registered a HepSE_liver fatty in the series with Hepatotoxicity [7] of 0. Further, the HepSE_hepatic necrosis in the series with Hepatotoxicity [8] is 0. Further, the HepSE_cirrhosis in the series with Hepatotoxicity [9] came to 0. The “HepSE_elevated liver function tests” value with Hepatotoxicity [10] was 0. This molecule had a HepSE_jaundice in the series on Hepatotoxicity [11] of 0. The “HepSE_liver function tests abnormal” value in the series with Hepatotoxicity [12] was 0. The molecule also had a HepSE_cholelithiasis in the series on Hepatotoxicity [13] of 0. The “HepSE_Combined Scores” value in the series on Hepatotoxicity [14] was 0.

`C=C1[C@H](CO)[C@@H](O)C[C@@H]1n1cnc2c(=O)[nH]c(N)nc21.O` returned a HepSE_liver disease in the series with Hepatotoxicity [1] of 0. Moreover, the HepSE_bilirubinemia in the series on Hepatotoxicity [2] is given as 0. This molecule came in with a HepSE_hepatomegaly in the series with Hepatotoxicity [3] of 1. Besides, in the series on Hepatotoxicity [4], the HepSE_hepatic failure stood at 0. Also, the HepSE_hepatitis in the series with Hepatotoxicity [5] amounted to 1. This molecule also yielded a HepSE_cholecystitis with Hepatotoxicity [6] of 0. For the same molecule, in the series with Hepatotoxicity [7], the HepSE_liver fatty worked out at 0. The same molecule gave a HepSE_hepatic necrosis with Hepatotoxicity [8] of 0. In the series on Hepatotoxicity [9], this molecule came in with a HepSE_cirrhosis of 0. Further, the “HepSE_elevated liver function tests” value with Hepatotoxicity [10] worked out at 0. In the series on Hepatotoxicity [11], this molecule yielded a HepSE_jaundice of 0. For the same molecule, the “HepSE_liver function tests abnormal” value in the series with Hepatotoxicity [12] came to 0. The same molecule yielded a HepSE_cholelithiasis in the series with Hepatotoxicity [13] of 0. The “HepSE_Combined Scores” value in the series with Hepatotoxicity [14] is 2.

On to `CC(=O)OCC(=O)[C@@]12OC3(CCCC3)O[C@@H]1C[C@H]1[C@@H]3CCC4=CC(=O)C=C[C@]4(C)[C@@]3(F)[C@@H](O)C[C@@]12C` [AMCINONIDE], for which, in the series on Hepatotoxicity [1], the HepSE_liver disease was found to be 0. Besides, in the series on Hepatotoxicity [2], the HepSE_bilirubinemia came out at 0. This molecule yielded a HepSE_hepatomegaly with Hepatotoxicity [3] of 0. In the series on Hepatotoxicity [4], this molecule showed a HepSE_hepatic failure of 0. The molecule further returned a HepSE_hepatitis with Hepatotoxicity [5] of 0. The same molecule registered a HepSE_cholecystitis in the series on Hepatotoxicity [6] of 0. In the series on Hepatotoxicity [7], this molecule returned a HepSE_liver fatty of 0. In the series on Hepatotoxicity [8], this molecule registered a HepSE_hepatic necrosis of 0. In the series on Hepatotoxicity [9], this molecule showed a HepSE_cirrhosis of 0. Also, the “HepSE_elevated liver function tests” value in the series with Hepatotoxicity [10] stood at 0. In the series with Hepatotoxicity [11], this molecule displayed a HepSE_jaundice of 0. Besides, the “HepSE_liver function tests abnormal” value with Hepatotoxicity [12] is on record as 0. Further, the HepSE_cholelithiasis with Hepatotoxicity [13] is reported as 0. In the series on Hepatotoxicity [14], the “HepSE_Combined Scores” value was 0.

In the case of `OCCOCCN1CCN(C(c2ccccc2)c2ccc(Cl)cc2)CC1` (stereo not given) [HYDROXYZINE], the HepSE_liver disease in the series with Hepatotoxicity [1] is recorded as 0. This molecule also showed a HepSE_bilirubinemia with Hepatotoxicity [2] of 0. The molecule also gave a HepSE_hepatomegaly in the series on Hepatotoxicity [3] of 0. The HepSE_hepatic failure in the series with Hepatotoxicity [4] is given as 0. Further, in the series on Hepatotoxicity [5], the HepSE_hepatitis is 0. The molecule further came in with a HepSE_cholecystitis in the series on Hepatotoxicity [6] of 0. This molecule registered a HepSE_liver fatty in the series with Hepatotoxicity [7] of 0. In the series on Hepatotoxicity [8], this molecule registered a HepSE_hepatic necrosis of 0. The HepSE_cirrhosis in the series on Hepatotoxicity [9] is on record as 0. In addition, in the series on Hepatotoxicity [10], the “HepSE_elevated liver function tests” value was found to be 0. For the same molecule, the HepSE_jaundice with Hepatotoxicity [11] was 0. In addition, in the series with Hepatotoxicity [12], the “HepSE_liver function tests abnormal” value turned out to be 0. Moreover, in the series on Hepatotoxicity [13], the HepSE_cholelithiasis is 0. Besides, in the series with Hepatotoxicity [14], the “HepSE_Combined Scores” value is listed as 0.

As to `[N]=O` [NITRIC OXIDE], the HepSE_liver disease in the series on Hepatotoxicity [1] worked out at 0. This molecule also yielded a HepSE_bilirubinemia in the series on Hepatotoxicity [2] of 0. The same molecule returned a HepSE_hepatomegaly in the series on Hepatotoxicity [3] of 0. The molecule also had a HepSE_hepatic failure in the series on Hepatotoxicity [4] of 0. The molecule further registered a HepSE_hepatitis with Hepatotoxicity [5] of 0. Also, the HepSE_cholecystitis in the series with Hepatotoxicity [6] is 0. This molecule also registered a HepSE_liver fatty in the series on Hepatotoxicity [7] of 0. Further, the HepSE_hepatic necrosis in the series on Hepatotoxicity [8] is on record as 0. Also, in the series with Hepatotoxicity [9], the HepSE_cirrhosis amounted to 0. In addition, the “HepSE_elevated liver function tests” value with Hepatotoxicity [10] was 0. This molecule also gave a HepSE_jaundice with Hepatotoxicity [11] of 0. Further, the “HepSE_liver function tests abnormal” value with Hepatotoxicity [12] was found to be 0. In the series on Hepatotoxicity [13], this molecule came in with a HepSE_cholelithiasis of 0. In the series on Hepatotoxicity [14], the “HepSE_Combined Scores” value is listed as 0.

`Nc1ccn([C@H]2CC[C@@H](CO)O2)c(=O)n1` [ZALCITABINE] registered a HepSE_liver disease in the series on Hepatotoxicity [1] (Liver) of 0. This molecule came in with a HepSE_bilirubinemia in the series with Hepatotoxicity [2] (Liver) of 1. The molecule also came in with a HepSE_hepatomegaly in the series with Hepatotoxicity [3] (Liver) of 1. Besides, the HepSE_hepatic failure in the series on Hepatotoxicity [4] (Liver) stood at 0. This molecule came in with a HepSE_hepatitis in the series on Hepatotoxicity [5] (Liver) of 1. Moreover, the HepSE_cholecystitis in the series with Hepatotoxicity [6] (Liver) amounted to 1. The molecule also came in with a HepSE_liver fatty with Hepatotoxicity [7] (Liver) of 0. The same molecule returned a HepSE_hepatic necrosis in the series with Hepatotoxicity [8] (Liver) of 0. In the series on Hepatotoxicity [9] (Liver), this molecule displayed a HepSE_cirrhosis of 0. In addition, the “HepSE_elevated liver function tests” value in the series on Hepatotoxicity [10] (Liver) is listed as 0. The molecule also displayed a HepSE_jaundice in the series on Hepatotoxicity [11] (Liver) of 1. For the same molecule, the “HepSE_liver function tests abnormal” value with Hepatotoxicity [12] (Liver) came out at 0. In addition, the HepSE_cholelithiasis in the series on Hepatotoxicity [13] (Liver) turned out to be 0. Further, the “HepSE_Combined Scores” value in the series with Hepatotoxicity [14] (Liver) is reported as 5.

`CC(CCc1ccccc1)NCC(O)c1ccc(O)c(C(N)=O)c1` (stereo not given) [LABETALOL] had a HepSE_liver disease in the series on Hepatotoxicity [1] of 0. Besides, in the series on Hepatotoxicity [2], the HepSE_bilirubinemia is 0. This molecule returned a HepSE_hepatomegaly in the series with Hepatotoxicity [3] of 0. Further, the HepSE_hepatic failure in the series with Hepatotoxicity [4] turned out to be 0. The molecule also displayed a HepSE_hepatitis in the series with Hepatotoxicity [5] of 1. The HepSE_cholecystitis in the series with Hepatotoxicity [6] was found to be 0. The molecule also gave a HepSE_liver fatty in the series on Hepatotoxicity [7] of 0. This molecule also had a HepSE_hepatic necrosis in the series with Hepatotoxicity [8] of 1. In the series with Hepatotoxicity [9], this molecule yielded a HepSE_cirrhosis of 0. Moreover, the “HepSE_elevated liver function tests” value in the series with Hepatotoxicity [10] was found to be 1. The molecule further displayed a HepSE_jaundice in the series with Hepatotoxicity [11] of 1. Further, the “HepSE_liver function tests abnormal” value in the series on Hepatotoxicity [12] is reported as 0. This molecule also registered a HepSE_cholelithiasis with Hepatotoxicity [13] of 0. The “HepSE_Combined Scores” value in the series with Hepatotoxicity [14] was determined as 4.

Take `CCc1c2c(nc3ccc(OC(=O)N4CCC(N5CCCCC5)CC4)cc13)-c1cc3c(c(=O)n1C2)COC(=O)[C@]3(O)CC` [IRINOTECAN]: the HepSE_liver disease in the series on Hepatotoxicity [1] was 0. The same molecule came in with a HepSE_bilirubinemia in the series on Hepatotoxicity [2] of 0. Moreover, in the series on Hepatotoxicity [3], the HepSE_hepatomegaly was 1. In the series on Hepatotoxicity [4], this molecule returned a HepSE_hepatic failure of 0. The HepSE_hepatitis in the series with Hepatotoxicity [5] is reported as 0. The same molecule returned a HepSE_cholecystitis in the series on Hepatotoxicity [6] of 0. This molecule also gave a HepSE_liver fatty in the series with Hepatotoxicity [7] of 0. The HepSE_hepatic necrosis with Hepatotoxicity [8] is listed as 0. The molecule also showed a HepSE_cirrhosis in the series on Hepatotoxicity [9] of 0. The “HepSE_elevated liver function tests” value in the series on Hepatotoxicity [10] was 0. Also, the HepSE_jaundice in the series on Hepatotoxicity [11] is 1. Further, the “HepSE_liver function tests abnormal” value with Hepatotoxicity [12] is on record as 0. The HepSE_cholelithiasis in the series on Hepatotoxicity [13] is listed as 0. In addition, in the series with Hepatotoxicity [14], the “HepSE_Combined Scores” value was 2.

`CCC(=O)C(CC(C)N(C)C)(c1ccccc1)c1ccccc1` (stereo not given) [METHADONE] had a HepSE_liver disease with Hepatotoxicity [1] of 0. Further, the HepSE_bilirubinemia in the series on Hepatotoxicity [2] is recorded as 0. In the series with Hepatotoxicity [3], this molecule had a HepSE_hepatomegaly of 0. In the series with Hepatotoxicity [4], this molecule gave a HepSE_hepatic failure of 0. The molecule also registered a HepSE_hepatitis in the series on Hepatotoxicity [5] of 0. Also, the HepSE_cholecystitis in the series with Hepatotoxicity [6] turned out to be 0. In the series on Hepatotoxicity [7], this molecule displayed a HepSE_liver fatty of 0. This molecule gave a HepSE_hepatic necrosis with Hepatotoxicity [8] of 0. Further, the HepSE_cirrhosis with Hepatotoxicity [9] was 0. Further, the “HepSE_elevated liver function tests” value in the series on Hepatotoxicity [10] was 0. The HepSE_jaundice with Hepatotoxicity [11] was found to be 0. Also, in the series on Hepatotoxicity [12], the “HepSE_liver function tests abnormal” value was 0. In the series with Hepatotoxicity [13], this molecule gave a HepSE_cholelithiasis of 0. Also, the “HepSE_Combined Scores” value with Hepatotoxicity [14] is given as 0.

The values above are taken from ChEMBL document CHEMBL1909294, “Translating clinical findings into knowledge in drug safety evaluation--drug induced liver injury prediction system (DILIps)” (PLoS Comput Biol, 2011).
